These are literature values, as cited in US5612056A, “Transdermal formulations” (priority 1991, dated 1997).

The test system of one series is blood cholinesterase. Conditions: human, in vivo, iv.
For series [1] the following is noted: guinea pig, in vivo.

For the compound `CNC(=O)Oc1ccc2c(c1)[C@]1(C)CCN(C)[C@@H]1N2C` [physostigmine], the blood cholinesterase inhibition entry with blood cholinesterase is “approximately 30%”. For the same compound, in series [1], the plasma half life is 40 to 50 min.
